Laboratory results taken from US20140194480A1, “METHODS FOR THE CONTROL OF TERMITES AND ANTS” (SYNGENTA PARTICIPATIONS AG, priority 2011, published 2014).

Legend:
termites [1] = experiment: Transfer test: termites exposed 6 h on treated sand, then combined with unexposed termites; total termite mortality; assay type: in vivo; conditions: for % mortality: Table 3; for % mortality of the total termites: Table 4
Method: Washed sand is treated with the experimental compound in a volatile solvent, so as to deliver the desired concentration w/w in the solvent free sand. Once the solvent has evaporated, the sand is thoroughly mixed and made up with deionised water to 3% w/w moisture content. Ca. 5 g of the so treated sand is placed in the base of a 9 cm Petri dish. 20 worker termites are placed on the treated sand and placed in a dark room under similar temperature to their culture colony. After 6 hours the termites are assessed for mortality and carefully removed from the treated sand, before being placed in a similar Petri dish of untreated sand (3% moisture content). 20 further termites are taken from the same colony and placed in the Petri dish with the exposed termites, along with a section of filter paper ca. 2 cm^2. The lid of the Petri dish is replaced and sealed with laboratory film. The so constructed Petri dish arena are placed in a dark room with a similar temperature to the culture colony. Assessments of total termite mortality, symptomology and behaviour are made at daily intervals.

termites [2] = experiment: Treated sand column test: termite mortality and distance tunnelled into treated sand; assay type: in vivo
Method: Washed sand was treated with the experimental compound diluted in acetone. The acetone was allowed to evaporate, and the sand thoroughly mixed. De-ionised water was added to the treated sand to give a final water content of 3%. The treated sand was then packed into a glass tube with an internal diameter of 13.2 mm, to produce a 4 cm column. This was held in place at one end with a section of 7% agar. Sections of filter paper were placed at both ends of the column. Approximately 25 mixed age termites were added to the end of the tube containing the agar. Both ends were then sealed with rubber bungs. Assessments were made 1, 2, 3, 7 and 21 days after infestation, measuring termite mortality and the distance tunnelled into the treated sand.

[3] = 2.5 ppm, 0 days after treatment
[4] = 2.5 ppm, 2 days after treatment
[5] = 2.5 ppm, 3 days after treatment
[6] = 2.5 ppm, 6 days after treatment
[7] = 2.5 ppm, 7 days after treatment
[8] = 2.5 ppm, 8 days after treatment
[9] = 2.5 ppm, 9 days after treatment
[10] = 2.5 ppm, 14 days after treatment
[11] = 1.25 ppm, 0 days after treatment
[12] = 1.25 ppm, 1 day after treatment
[13] = 1.25 ppm, 2 days after treatment
[14] = 1.25 ppm, 3 days after treatment
[15] = 1.25 ppm, 6 days after treatment
[16] = 1.25 ppm, 7 days after treatment
[17] = 1.25 ppm, 8 days after treatment
[18] = 1.25 ppm, 9 days after treatment
[19] = 1.25 ppm, 14 days after treatment

Cc1cc(C2=NOC(c3cc(Cl)cc(Cl)c3)(C(F)(F)F)C2)ccc1C(=O)NC1(C)CSC1 (racemic) [Compound 1]
% mortality (termites [1]; 10 ppm, 2 days after application): 0% | % mortality (termites [1]; 10 ppm, 3 days after application): 14% | % mortality (termites [1]; 10 ppm, 6 days after application): 30% | % mortality (termites [1]; 10 ppm, 7 days after application): 38% | % mortality (termites [1]; 10 ppm, 8 days after application): 43% | % mortality (termites [1]; 10 ppm, 9 days after application): 50% | % mortality (termites [1]; 10 ppm, 10 days after application): 67% | % mortality (termites [1]; 10 ppm, 13 days after application): 78% | % mortality (termites [1]; 10 ppm, 14 days after application): 83% | % mortality (termites [1]; 10 ppm, 15 days after application): 87% | % mortality (termites [1]; 10 ppm, 16 days after application): 88% | % mortality (termites [1]; 10 ppm, 17 days after application): 92% | % mortality of the total termites (termites [1]; [3]): 0% | % mortality of the total termites (termites [1]; 2.5 ppm, 1 day after treatment): 0% | % mortality of the total termites (termites [1]; [4]): 0.5% | % mortality of the total termites (termites [1]; [5]): 0.5% | % mortality of the total termites (termites [1]; [6]): 0.5% | % mortality of the total termites (termites [1]; [7]): 1% | % mortality of the total termites (termites [1]; [8]): 1% | % mortality of the total termites (termites [1]; [9]): 1.5% | % mortality of the total termites (termites [1]; [10]): 1.5% | % mortality of the total termites (termites [1]; 5 ppm, 0 days after treatment): 0% | % mortality of the total termites (termites [1]; 5 ppm, 1 day after treatment): 0.5% | % mortality of the total termites (termites [1]; 5 ppm, 2 days after treatment): 1.5% | % mortality of the total termites (termites [1]; 5 ppm, 3 days after treatment): 1.5% | % mortality of the total termites (termites [1]; 5 ppm, 6 days after treatment): 1.5% | % mortality of the total termites (termites [1]; 5 ppm, 7 days after treatment): 6% | % mortality of the total termites (termites [1]; 5 ppm, 8 days after treatment): 6% | % mortality of the total termites (termites [1]; 5 ppm, 9 days after treatment): 7% | % mortality of the total termites (termites [1]; 5 ppm, 14 days after treatment): 7.5% | % mortality of the total termites (termites [1]; 10 ppm, 0 days after treatment): 0% | % mortality of the total termites (termites [1]; 10 ppm, 1 day after treatment): 19.5% | % mortality of the total termites (termites [1]; 10 ppm, 2 days after treatment): 23.5% | % mortality of the total termites (termites [1]; 10 ppm, 3 days after treatment): 27.5% | % mortality of the total termites (termites [1]; 10 ppm, 6 days after treatment): 32.5% | % mortality of the total termites (termites [1]; 10 ppm, 7 days after treatment): 33.5% | % mortality of the total termites (termites [1]; 10 ppm, 8 days after treatment): 35% | % mortality of the total termites (termites [1]; 10 ppm, 9 days after treatment): 35.5% | % mortality of the total termites (termites [1]; 10 ppm, 14 days after treatment): 37.5%

Cc1cc(C2=NCC(c3cc(Cl)cc(Cl)c3)(C(F)(F)F)C2)ccc1C(=O)NC1(C)CSC1 (racemic) [Compound 1b]
% mortality of the total termites (termites [1]; [11]): 0% | % mortality of the total termites (termites [1]; [12]): 1.5% | % mortality of the total termites (termites [1]; [13]): 3.5% | % mortality of the total termites (termites [1]; [14]): 5.5% | % mortality of the total termites (termites [1]; [15]): 6% | % mortality of the total termites (termites [1]; [16]): 6% | % mortality of the total termites (termites [1]; [17]): 6% | % mortality of the total termites (termites [1]; [18]): 6.5% | % mortality of the total termites (termites [1]; [19]): 6.5% | % mortality of the total termites (termites [1]; [3]): 0% | % mortality of the total termites (termites [1]; 2.5 ppm, 1 day after treatment): 10% | % mortality of the total termites (termites [1]; [4]): 19% | % mortality of the total termites (termites [1]; [5]): 22.5% | % mortality of the total termites (termites [1]; [6]): 27% | % mortality of the total termites (termites [1]; [7]): 36% | % mortality of the total termites (termites [1]; [8]): 36.5% | % mortality of the total termites (termites [1]; [9]): 37% | % mortality of the total termites (termites [1]; [10]): 38% | % mortality of the total termites (termites [1]; 5 ppm, 0 days after treatment): 0% | % mortality of the total termites (termites [1]; 5 ppm, 1 day after treatment): 15% | % mortality of the total termites (termites [1]; 5 ppm, 2 days after treatment): 33.5% | % mortality of the total termites (termites [1]; 5 ppm, 3 days after treatment): 40.5% | % mortality of the total termites (termites [1]; 5 ppm, 6 days after treatment): 52.5% | % mortality of the total termites (termites [1]; 5 ppm, 7 days after treatment): 59.5% | % mortality of the total termites (termites [1]; 5 ppm, 8 days after treatment): 60% | % mortality of the total termites (termites [1]; 5 ppm, 9 days after treatment): 61.5% | % mortality of the total termites (termites [1]; 5 ppm, 14 days after treatment): 63.5%

Cc1cc(C2=NOC(c3cc(Cl)cc(Cl)c3)(C(F)(F)F)C2)ccc1C(=O)NC1CSC1 (racemic) [Compound 5]
% mortality of the total termites (termites [1]; [11]): 0% | % mortality of the total termites (termites [1]; [12]): 3% | % mortality of the total termites (termites [1]; [13]): 12% | % mortality of the total termites (termites [1]; [14]): 12% | % mortality of the total termites (termites [1]; [15]): 20% | % mortality of the total termites (termites [1]; [16]): 24% | % mortality of the total termites (termites [1]; [17]): 25% | % mortality of the total termites (termites [1]; [18]): 26.5% | % mortality of the total termites (termites [1]; [19]): 30% | % mortality of the total termites (termites [1]; [3]): 0% | % mortality of the total termites (termites [1]; 2.5 ppm, 1 day after treatment): 15% | % mortality of the total termites (termites [1]; [4]): 31% | % mortality of the total termites (termites [1]; [5]): 32% | % mortality of the total termites (termites [1]; [6]): 42% | % mortality of the total termites (termites [1]; [7]): 46.5% | % mortality of the total termites (termites [1]; [8]): 46.5% | % mortality of the total termites (termites [1]; [9]): 49.5% | % mortality of the total termites (termites [1]; [10]): 56% | % mortality of the total termites (termites [1]; 5 ppm, 0 days after treatment): 0% | % mortality of the total termites (termites [1]; 5 ppm, 1 day after treatment): 20.5% | % mortality of the total termites (termites [1]; 5 ppm, 2 days after treatment): 42% | % mortality of the total termites (termites [1]; 5 ppm, 3 days after treatment): 44% | % mortality of the total termites (termites [1]; 5 ppm, 6 days after treatment): 52.5% | % mortality of the total termites (termites [1]; 5 ppm, 7 days after treatment): 54.5% | % mortality of the total termites (termites [1]; 5 ppm, 8 days after treatment): 56.5% | % mortality of the total termites (termites [1]; 5 ppm, 9 days after treatment): 56.5% | % mortality of the total termites (termites [1]; 5 ppm, 14 days after treatment): 65.5%

N#Cc1nn(-c2c(Cl)cc(C(F)(F)F)cc2Cl)c(N)c1[S+]([O-])C(F)(F)F (stereo not drawn) [Fipronil]
Mortality/average % (termites [2]; Table 1, 0.01 ppm in sand, 1 DAA): 7% | Mortality/average % (termites [2]; Table 1, 0.01 ppm in sand, 2 DAA): 7% | Mortality/average % (termites [2]; Table 1, 0.01 ppm in sand, 3 DAA): 7% | Mortality/average % (termites [2]; Table 1, 0.01 ppm in sand, 7 DAA): 7% | Mortality/average % (termites [2]; Table 1, 0.01 ppm in sand, 21 DAA): 52% | Mortality/average % (termites [2]; Table 1, 0.1 ppm in sand, 1 DAA): 0% | Mortality/average % (termites [2]; Table 1, 0.1 ppm in sand, 2 DAA): 28% | Mortality/average % (termites [2]; Table 1, 0.1 ppm in sand, 3 DAA): 33% | Mortality/average % (termites [2]; Table 1, 0.1 ppm in sand, 7 DAA): 77% | Mortality/average % (termites [2]; Table 1, 0.1 ppm in sand, 21 DAA): 100% | Mortality/average % (termites [2]; Table 2, 0.01 ppm in sand, 1 DAA): 27% | Mortality/average % (termites [2]; Table 2, 0.01 ppm in sand, 2 DAA): 40% | Mortality/average % (termites [2]; Table 2, 0.01 ppm in sand, 3 DAA): 40% | Mortality/average % (termites [2]; Table 2, 0.01 ppm in sand, 7 DAA): 40% | Mortality/average % (termites [2]; Table 2, 0.01 ppm in sand, 21 DAA): 40% | Mortality/average % (termites [2]; Table 2, 0.1 ppm in sand, 1 DAA): 27% | Mortality/average % (termites [2]; Table 2, 0.1 ppm in sand, 2 DAA): 30% | Mortality/average % (termites [2]; Table 2, 0.1 ppm in sand, 3 DAA): 40% | Mortality/average % (termites [2]; Table 2, 0.1 ppm in sand, 7 DAA): 40% | Mortality/average % (termites [2]; Table 2, 0.1 ppm in sand, 21 DAA): 40% | repellency (in words) (termites [2]; fipronil rates tested (0.1 and 0.01 ppm)): not repellent
